Measured values published in publication PMC6102747 (Molecular Medicine Reports, 2018).

What was measured:
Gstm1 = assay: Western blot protein expression in liver; type: in vivo, rats; conditions: vs control
Car = assay: Western blot protein expression in small intestine and liver; type: in vivo, rats; conditions: vs control
[1] = Pharmacokinetics of CsA after intravenous administration; type: in vivo, Sprague-Dawley rats; conditions: rats, i.v. CsA 2.5 mg/kg, Q3GA 5 mg/kg i.v. 7 days
Mrp2 = assay: RT-qPCR mRNA expression in small intestine and liver; type: in vivo, rats; conditions: vs control
Slco1b2 = assay: RT-qPCR mRNA expression in liver; type: in vivo, rats; conditions: vs control
OATP2B1 = assay: Western blot protein expression in small intestine; type: in vivo, rats; conditions: vs control
[2] = low-dose Q3GA 2.5 mg/kg i.v. 7 days, P<0.001
[3] = small intestine, high-dose Q3GA 10 mg/kg i.v. 7 days, P<0.01
[4] = small intestine, low-dose Q3GA 2.5 mg/kg i.v. 7 days, P<0.001
[5] = small intestine, middle-dose Q3GA 5 mg/kg i.v. 7 days, P<0.01
[6] = middle-dose Q3GA 5 mg/kg i.v. 7 days, P<0.01

## O=c1c(O[C@@H]2O[C@H](CO)[C@@H](O)[C@H](O)[C@H]2O)c(-c2ccc(O)c(O)c2)oc2cc(O)cc(O)c12 [Q3GA, Quercetin-3-O-β-D-glucoside]
Gstm1; high-dose Q3GA 10 mg/kg i.v. 7 days, P<0.05
  increase in GSTM1 protein expression: 229.75%
Gstm1; [2]
  increase in GSTM1 protein expression: 417.29%
Gstm1; middle-dose Q3GA 5 mg/kg i.v. 7 days
  increase in GSTM1 protein expression: 159.37%
Car; liver, high-dose Q3GA 10 mg/kg i.v. 7 days, not significant
  increase in CAR protein expression: 211.76%
Car; liver, low-dose Q3GA 2.5 mg/kg i.v. 7 days, P<0.01
  increase in CAR protein expression: 456.37%
Car; liver, middle-dose Q3GA 5 mg/kg i.v. 7 days, not significant
  increase in CAR protein expression: 208.32%
Car; [3]
  increase in CAR protein expression: 91.07%
Car; [4]
  increase in CAR protein expression: 235.46%
Car; [5]
  increase in CAR protein expression: 78.59%
[1]
  effect on blood concentration of CsA after intravenous injection of CsA: not affected
Mrp2; liver, high-dose Q3GA 10 mg/kg i.v. 7 days, P<0.05
  decrease in Mrp2 mRNA expression: 20.44%
Mrp2; liver, low-dose Q3GA 2.5 mg/kg i.v. 7 days, P<0.001
  decrease in Mrp2 mRNA expression: 68.86%
Mrp2; liver, middle-dose Q3GA 5 mg/kg i.v. 7 days, P<0.01
  decrease in Mrp2 mRNA expression: 32.70%
Mrp2; [3]
  decrease in Mrp2 mRNA expression: 28.66%
Mrp2; [4]
  decrease in Mrp2 mRNA expression: 66.03%
Mrp2; [5]
  decrease in Mrp2 mRNA expression: 34.53%
Slco1b2; high-dose Q3GA 10 mg/kg i.v. 7 days, P<0.001
  decrease in Slco1b2 mRNA expression: 53.54%
Slco1b2; [2]
  decrease in Slco1b2 mRNA expression: 68.06%
Slco1b2; [6]
  decrease in Slco1b2 mRNA expression: 38.39%
OATP2B1; high-dose Q3GA 10 mg/kg i.v. 7 days, P<0.01
  decrease in OATP2B1 protein expression: 51.44%
OATP2B1; [2]
  decrease in OATP2B1 protein expression: 86.44%
OATP2B1; [6]
  decrease in OATP2B1 protein expression: 42.21%
